In the supplement of paper PMC10331698:
± gives the standard deviation of the averaged measurements.

Columns and labels:
Assay in all cases: level (log10 ratio to DMSO vehicle control); higher = higher biomarker level / cell amount than vehicle control
[1] = compound: C=C(C)C(=O)OCCC(F)(F)C(F)(F)C(F)(F)C(F)(F)C(F)(F)C(F)(F)F [6:2 Fluorotelomer methacrylate]; settings: in DMSO
Procedure: (§1)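 BioMAP Diversity Plus panel of 12 human primary cell co-culture systems (3C, 4H, LPS, SAg, BT, BF4T, BE3C, CASM3C, HDF3CGF, KF3CT, MyoF, Mphg). Compounds were added 1 h before stimulation and left for 24 h (MyoF 48 h; BT 72 h for soluble read-outs or 6 d for IgG). Biomarkers were read by ELISA, cytotoxicity by SRB, PBMC viability and proliferation by Alamar Blue. Each well value was divided by the mean of 8 DMSO control wells on the same plate and log10 transformed; duplicate blinded samples were tested at 4 concentrations.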

[2] = compound: C=CC(=O)OCC(F)(F)C(F)(F)C(F)(F)COC(=O)C=C [1H,1H,5H,5H-Perfluoro-1,5-pentanediol diacrylate]; settings: 6700 nM; in DMSO
Procedure: as §1

[3] = compound: COC(=O)C(F)(F)C(F)(F)OC(F)(C(F)(F)F)C(F)(F)OC(F)=C(F)F [Methyl perfluoro(3-(1-ethenyloxypropan-2-yloxy)propanoate)]; settings: in DMSO
Procedure: as §1

[4] = compound: FC(F)(F)C(F)(F)C(F)(F)CC1CO1 [1H,1H-Heptafluorobutyl epoxide]; settings: in DMSO
Procedure: as §1

[5] = compound: NC(=O)C(F)(F)C(F)(F)C(F)(F)C(F)F; settings: in DMSO
Procedure: as §1

[6] = compound: NS(=O)(=O)C(F)(F)C(F)(F)C(F)(F)C(F)(F)C(F)(F)C(F)(F)F [Perfluorohexanesulfonamide]; settings: in DMSO
Procedure: as §1

Row | Test System | level (log10) ([1]; 6700 nM) | level (log10) ([1]; 20000 nM) | level (log10) ([1]; 60000 nM) | level (log10) [2] | level (log10) ([3]; 6700 nM) | level (log10) ([3]; 20000 nM) | level (log10) ([4]; 6700 nM) | level (log10) ([4]; 20000 nM) | level (log10) ([4]; 60000 nM) | level (log10) ([5]; 6700 nM) | level (log10) ([5]; 20000 nM) | level (log10) ([5]; 60000 nM) | level (log10) ([6]; 6700 nM) | level (log10) ([6]; 20000 nM) | level (log10) ([6]; 60000 nM)
1 | CASM3C:CD87/uPAR | -0.014 ± 0.028 | -0.0285 ± 0.023 | -0.0355 ± 0.023 | -0.0095 ± 0.022 | -0.015 ± 0.027 | -0.0165 ± 0.026 | -0.023 ± 0.0057 | -0.017 ± 0.035 | -0.019 ± 0.017 | -0.0115 ± 0.015 | -0.0035 ± 0.0078 | -0.019 ± 0.017 | -0.01 ± 0.0071 | -0.028 ± 0.0028 | -0.029 ± 0.033
2 | BE3C:Keratin 8/18 | -0.051 ± 0.055 | -0.0445 ± 0.053 | -0.0305 ± 0.035 | -0.0055 ± 0.044 | -0.0095 ± 0.049 | -0.004 ± 0.025 | -0.0125 ± 0.011 | 0.019 ± 0.021 | 0.011 ± 0.047 | -0.0045 ± 0.0092 | -0.0025 ± 0.005 | -0.0185 ± 0.033 | 0.0065 ± 0.012 | 0.0055 ± 0.033 | -0.033 ± 0.025
3 | BE3C:PAI-I | -0.0115 ± 0.037 | -0.019 ± 0.034 | -0.016 ± 0.033 | 0.0535 ± 0.0064 | 0.0185 ± 0.019 | 0.037 ± 0.0071 | 0.0035 ± 0.0092 | 0.0075 ± 0.005 | 0.0165 ± 0.025 | 0.0065 ± 0.0064 | -0.0055 ± 0.0035 | 0 ± 0.0028 | -0.055 ± 0.062 | -0.087 ± 0.079 | -0.165 ± 0.068
4 | 3C:CD141/Thrombomodulin | -0.0155 ± 0.042 | -0.014 ± 0.048 | -0.072 ± 0.014 | -0.124 ± 0.013 | -0.036 ± 0.02 | -0.028 ± 0.034 | 0.0125 ± 0.053 | -0.034 ± 0.04 | -0.0575 ± 0.08 | -0.0285 ± 0.074 | 0 ± 0.03 | -0.0075 ± 0.026 | -0.04 ± 0.023 | -0.045 ± 0.02 | 0.0135 ± 0.033
5 | BE3C:uPA | 0.0055 ± 0.0064 | 0.0085 ± 0.0092 | 0.019 ± 0.021 | -0.015 ± 0.0028 | 0.0005 ± 0.0035 | 0.0305 ± 0.012 | -0.022 ± 0.014 | -0.004 ± 0.0042 | -0.0065 ± 0.00071 | -0.01 ± 0.0057 | -0.013 ± 0.0085 | -0.0045 ± 0.013 | -0.0115 ± 0.032 | 0.0025 ± 0.037 | -0.0365 ± 0.037
6 | 4H:CCL26/Eotaxin-3 | 0.016 | 0.006 ± 0.048 | -0.009 ± 0.05 | -0.214 ± 0.037 | -0.001 ± 0.016 | -0.0425 ± 0.026 | 0.0055 ± 0.0064 | -0.0365 ± 0.025 | 0.032 ± 0.062 | 0.0095 ± 0.037 | 0.0315 ± 0.029 | 0.0275 ± 0.016 | -0.0015 ± 0.005 | -0.0285 ± 0.028 | -0.1 ± 0.0071
7 | 4H:CD62P/P-selectin | -0.033 ± 0.072 | -0.0065 ± 0.044 | -0.01 ± 0.0014 | -0.0825 ± 0.018 | 0.0115 ± 0.079 | 0.0095 ± 0.073 | -0.015 ± 0.0099 | -0.007 ± 0.0014 | 0.0455 ± 0.046 | -0.017 | -0.017 ± 0.031 | 0.0195 ± 0.029 | -0.006 ± 0.014 | 0.055 ± 0.062 | -0.0045 ± 0.012
8 | HDF3CGF:CXCL11/I-TAC | -0.022 ± 0.021 | -0.014 ± 0.0014 | -0.018 ± 0.013 | -0.41 ± 0.045 | -0.0285 ± 0.018 | -0.272 ± 0.0078 | -0.0165 ± 0.063 | -0.016 ± 0.093 | -0.0255 ± 0.11 | -0.0035 ± 0.016 | -0.002 ± 0.013 | -0.002 ± 0.027 | 0.0075 ± 0.018 | -0.028 ± 0.011 | -0.189 ± 0.033
